Results taken from patent US6156700A, “3-(1,2-Benzisothiazol- and isoxazol-5-yl)-2,4(1H,3H)-pyrimidinedione or thione and 3-(1,2-benzisothiazol- and isoxazol-5-yl)-4(3H)-pyrimidinone or thione herbicidal agents” (American Cyanmid Company, priority 1998, dated 2000).

Key:
[1] = tested on: Velvetleaf, Abutilon theophrasti; test: Postemergence herbicidal evaluation, ABUTH; assay type: in vivo, Medic.; conditions: 0.2500 kg/ha
Method in brief: (§1)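 Visual 0–9 rating vs untreated control (stand, vigor, malformation, size, chlorosis, overall appearance), scored 4–5 wk post-spray. Two-week-old seedlings; compound in 50/50 acetone/water + 0.5% TWEEN 20, ~0.0157–0.500 kg/ha, 40 psi nozzle.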

[2] = tested on: Morningglory Spp., Ipomoea Spp.; test: Postemergence herbicidal evaluation, IPOSS; assay type: in vivo; conditions: 0.2500 kg/ha
Description: In the tests, seedling plants are grown in jiffy flats for about two weeks. The test compounds are dispersed in 50/50 acetone/water mixtures containing 0.5% TWEEN®20, a polyoxyethylene sorbitan monolaurate surfactant of Atlas Chemical Industries, in sufficient quantities to provide the equivalent of about 0.0157 kg to 0.500 kg per hectare of active compound when applied to the plants through a spray nozzle operating at 40 psi for a predetermined time. After spraying, the plants are placed on greenhouse benches and are cared for in accordance with conventional greenhouse procedures. From four to five weeks after treatment, the seedling plants are examined and rated according to the rating system set forth below. Where more than one test is involved for a given compound, the data are averaged.
(§2) Results of herbicide evaluation are expressed on a rating scale (0-9). The scale is based upon a visual observation of plant stand, vigor, malformation, size, chlorosis and overall plant appearance as compared with a control.

[3] = tested on: Barnyardgrass, Echinochloa crus-galli; test: Postemergence herbicidal evaluation, ECHCG; assay type: in vivo, (L.) Beau; conditions: 0.2500 kg/ha
Method in brief: as §1

[4] = tested on: Soybean, Williams, Glycine max; test: Postemergence herbicidal evaluation, GLXMAW; assay type: in vivo, (L.) Merr. cv Williams; conditions: 0.2500 kg/ha
Method in brief: as §1

Corn, Field, Zea mays = test: Postemergence herbicidal evaluation, ZEAMX; assay type: in vivo, L.; conditions: 0.2500 kg/ha
Method in brief: as §1

[5] = tested on: Sicklepod, Cassia obtusifolia; test: Preemergence herbicidal evaluation, CASOB; assay type: in vivo, L.; conditions: 0.2500 kg/ha
Source text: as §2
(§3) The preemergence herbicidal activity of the test compounds of the present invention is exemplified by the following tests in which the seeds of a variety of monocotyledonous and dicotyledonous plants are separately mixed with potting soil and planted on top of approximately one inch of soil in separate pint cups. After planting, the cups are sprayed with the selected aqueous acetone solution containing test compound in sufficient quantity to provide the equivalent of about 0.0156 to 0.500 kg per hectare of test compound per cup. The treated cups are then placed on greenhouse benches, watered and cared for in accordance with conventional greenhouse procedures. From four to five weeks after treatment, the tests are terminated and each cup is examined and rated according to the rating system provided in Example 185.
(§4) The compounds evaluated are reported by compound number given in Example 185.

[6] = tested on: Foxtail, Green, Setaria viridis; test: Preemergence herbicidal evaluation, SETVI; assay type: in vivo, (L.) Beau; conditions: 0.2500 kg/ha
Source text: as §2, §3, §4

[7] = tested on: Rice, Tebonnet, Oryza sativa; test: Preemergence herbicidal evaluation, ORYSAT; assay type: in vivo, (L.) Tebonnet; conditions: 0.2500 kg/ha
Source text: as §2, §3, §4

[8] = tested on: Wheat, Winter, cv Riband, Triticum aestivum; test: Preemergence herbicidal evaluation, TRZAWR; assay type: in vivo; conditions: 0.2500 kg/ha
Source text: as §2, §3, §4

CYPSE Flatsedge [9] = test: Preemergence weed control, flooded paddy (Table III); assay type: in vivo, Cyperus serotinus; design: scale not given here
Description: Preemergence herbicidal activity under flooded paddy conditions is determined as follows: plant seeds or propagating organs are planted in the top 0.5 cm of silt loam soil in 32 oz. plastic containers with a diameter of 10.5 cm and no drainage holes. Water is added to these containers and maintained at 1.5 to 3 cm above the soil surface for the duration of the experiment. The test compounds are applied as aqueous/acetone mixtures 50/50 v/v pipetted directly into the flood water to give the equivalent of about 0.0313 to 0.500 kg/ha of active ingredient. The treated containers are placed on greenhouse benches and cared for in accordance with conventional greenhouse procedures. Three to four weeks after treatment, the test is terminated and each container is examined and herbicidal effect rated according to the rating system provided in Example 185. The compounds evaluated are reported by compound number given in Example 185.

ORYSAT Rice, Tebonnet [10] = test: Tolerance of transplanted rice to post-transplant application (Table III); assay type: in vivo, Oryza sativa; design: scale not given here; conditions: crop tolerance
Description: The tolerance of transplanted rice to post-transplanted herbicide applications is determined as follows: two ten-day-old rice seedlings (cv. Tebonnet) are transplanted into silt loam soil in 32 oz. plastic containers with a diameter of 10.5 cm and no drainage holes. After transplanting, the containers are flooded and the water level is maintained at 1.5 to 3 cm above the soil surface. Three days after transplanting, the flooded soil surface of the containers is treated with the selected aqueous/acetone 50/50 v/v mixture containing the test compounds to provide the equivalent of about 0.0313 to 0.500 kg/ha of active ingredient. The treated containers are placed on greenhouse benches, watered such that the water level is maintained as stated above, and cared for in accordance with conventional greenhouse procedures. Three to four weeks after treatment, the test is terminated and each container is examined and herbicidal effect rated according to the rating system provided in Example 185. The compounds evaluated are reported by compound number given in Example 185.

CYPSE Flatsedge [11] = test: Postemergence weed control, flooded paddy (Table IV); assay type: in vivo, Cyperus serotinus; design: scale not given here
Source text: (§5) Plastic containers containing weeds which are 3 to 5 cm tall and rice seedlings at the 1.5 to 2.5 leaf stage are flooded with water. The water is maintained at 1.5 to 3 cm above the soil surface for the duration of the experiment. Test compounds are applied as aqueous/acetone mixtures 50/50 v/v directly into the flood water to provide the equivalent of about 0.0313 to 0.500 kg/ha of active ingredient. The treated containers are placed on greenhouse benches and cared for in accordance with conventional greenhouse procedures. Three to four weeks after treatment, the test is terminated and each container is examined and herbicidal effect rated according to the rating system provided in Example 185. The compounds evaluated are reported by compound number given in Example 185.

[12] = tested on: SAGPY Arrowhead (Pygmaea); test: as above; assay type: in vivo, Sagittaria pygmaea; design: scale not given here
Source text: as §5

ORYSAT Rice, Tebonnet [13] = test: Rice tolerance, flooded paddy (Table IV); assay type: in vivo, Oryza sativa; design: scale not given here; conditions: crop tolerance
Source text: as §5

Structure (SMILES) | herbicide rating (0-9) [1] | herbicide rating (0-9) [2] | herbicide rating (0-9) [3] | herbicide rating (0-9) [4] | herbicide rating (0-9) (Corn, Field, Zea mays) | herbicide rating (0-9) [5] | herbicide rating (0-9) [6] | herbicide rating (0-9) [7] | herbicide rating (0-9) [8] | herbicidal effect rating (CYPSE Flatsedge [9]; 0.0625 kg/ha) | herbicidal effect rating (CYPSE Flatsedge [9]; 0.1250 kg/ha) | herbicidal effect rating (CYPSE Flatsedge [9]; 0.2500 kg/ha) | herbicidal effect rating (CYPSE Flatsedge [9]; 0.5000 kg/ha) | herbicidal effect rating (ORYSAT Rice, Tebonnet [10]; 0.0625 kg/ha) | herbicidal effect rating (ORYSAT Rice, Tebonnet [10]; 0.1250 kg/ha) | herbicidal effect rating (ORYSAT Rice, Tebonnet [10]; 0.2500 kg/ha) | herbicidal effect rating (ORYSAT Rice, Tebonnet [10]; 0.5000 kg/ha) | herbicidal effect rating (CYPSE Flatsedge [11]; 0.1250 kg/ha) | herbicidal effect rating (CYPSE Flatsedge [11]; 0.2500 kg/ha) | herbicidal effect rating (CYPSE Flatsedge [11]; 0.5000 kg/ha) | other results
Cc1cc(O)c(-c2nsc3ccc(-n4c(=O)cc(C(F)(F)F)n(C)c4=O)cc23)cc1C [Compound 11, 3-[3-(6-Hydroxy-3,4-xylyl)-1,2-benzisothiazol-5-yl]-1-methyl-6-(trifluoromethyl)-2,4(1H,3H)-pyrimidinedione] | 9.0 | 9.0 | 7.0 | 6.0 | 5.5 | 3.0 | 9.0 | 0.0 | 4.0 | 2.0 | 2.0 | 2.0 | 7.0 | 2.0 | 2.0 | 3.0 | 3.0 | 0.0 | 0.0 | 0.0 | herbicidal effect rating ([12]; 0.1250 kg/ha): 0.0; herbicidal effect rating ([12]; 0.2500 kg/ha): 4.0; herbicidal effect rating ([12]; 0.5000 kg/ha): 7.0; herbicidal effect rating (ORYSAT Rice, Tebonnet [13]; 0.1250 kg/ha): 0.0; herbicidal effect rating (ORYSAT Rice, Tebonnet [13]; 0.2500 kg/ha): 1.0; herbicidal effect rating (ORYSAT Rice, Tebonnet [13]; 0.5000 kg/ha): 1.0
COC(=O)C(C)Oc1cc(C)c(C)cc1-c1nsc2ccc(-n3c(=O)cc(C(F)(F)F)n(C)c3=O)cc12 (stereo not shown) [Compound 13, Methyl 2-{{6-{5-[3,6-dihydro-3-methyl-4-(trifluoromethyl)-2,6-dioxo-1(2H)-pyrimidinyl]-1,2-benzisothiazol-3-yl}-3,4-xylyl}oxy}propionate] | 9.0 | 9.0 | 9.0 | 8.5 | 9.0 | 9.0 | 9.0 | 6.0 | 4.0 | 2.0 | 7.0 | 7.0 | 7.0 | 6.0 | 7.0 | 7.0 | 9.0 | 2.0 | 4.0 | 2.0 | herbicidal effect rating (CYPSE Flatsedge [9]; 0.0313 kg/ha): 0.0; herbicidal effect rating (ORYSAT Rice, Tebonnet [10]; 0.0313 kg/ha): 4.0; herbicidal effect rating ([12]; 0.1250 kg/ha): 2.0; herbicidal effect rating ([12]; 0.2500 kg/ha): 2.0; herbicidal effect rating ([12]; 0.5000 kg/ha): 9.0; herbicidal effect rating (ORYSAT Rice, Tebonnet [13]; 0.1250 kg/ha): 4.0; herbicidal effect rating (ORYSAT Rice, Tebonnet [13]; 0.2500 kg/ha): 4.0; herbicidal effect rating (ORYSAT Rice, Tebonnet [13]; 0.5000 kg/ha): 7.0
COC(=O)C(C)Oc1cc(C)ccc1-c1nsc2ccc(-n3c(=O)cc(C(F)(F)F)n(C)c3=O)cc12 (stereo not shown) [Compound 9, Methyl 2-{{6-{5-[3,6-dihydro-3-methyl-4-(trifluoromethyl)-2,6-dioxo-1(2H)-pyrimidinyl]-1,2-benzisothiazol-3-yl}-m-tolyl}oxy}propionate] | 9.0 | 9.0 | 9.0 | 9.0 | 9.0 | 9.0 | 9.0 | 9.0 | 9.0 | 4.0 | 9.0 | 9.0 | 9.0 | 7.0 | 7.0 | 8.0 | 9.0 | 2.0 | 7.0 | 9.0 | herbicidal effect rating (CYPSE Flatsedge [9]; 0.0313 kg/ha): 2.0; herbicidal effect rating (ORYSAT Rice, Tebonnet [10]; 0.0313 kg/ha): 6.0; herbicidal effect rating ([12]; 0.1250 kg/ha): 2.0; herbicidal effect rating ([12]; 0.2500 kg/ha): 9.0; herbicidal effect rating ([12]; 0.5000 kg/ha): 9.0; herbicidal effect rating (ORYSAT Rice, Tebonnet [13]; 0.1250 kg/ha): 7.0; herbicidal effect rating (ORYSAT Rice, Tebonnet [13]; 0.2500 kg/ha): 9.0; herbicidal effect rating (ORYSAT Rice, Tebonnet [13]; 0.5000 kg/ha): 9.0
